From patent US20250064789A1, “KETOAMIDE DERIVATIVES AND PHARMACEUTICAL USES THEREOF” (priority 2022, published 2025)
Read-outs that look alike come from different tables or passages of the source.

How the values were obtained:
human thrombin = human thrombin (Homo sapiens (Human), UniProt P00734); assay: Human protease biochemical activity assay: Thrombin activity testing kit
Protocol: (§1) The biochemical activity of compounds against human proteases was determined using Cathepsin K inhibitor screening kit (K150-100), Cathepsin B inhibitor screening kit (K147-100), Thrombin activity testing kit (K373-100), Caspase-2 inhibitor screening kit (K152-100), and Cathepsin D inhibitor screening kit (K148-100) according to the instructions of the kits (Biovision, USA). All experiments were carried out in triplicate. All experimental data were analyzed using GraphPad Prism software.

[1] = tested on: SARS-CoV-2 Omicron (B.1.1.529) BA.2; set-up: species or system K18-hACE2 transgenic mice; settings: mouse, in vivo
MERS-CoV = assay type: cell-based
in vivo [2] = assay type: in vivo, cynomolgus monkeys; settings: for MRT inf: read-out: MRTINF—obs
in vivo [3] = assay type: in vivo, beagle dogs; settings: for MRT inf: read-out: MRTINF—obs
Protocol: Male ICR mice (6-8 weeks old, weighing 16-25 g), male beagle dogs (1-2 years old, weighing 9-12 kg), or male cynomolgus monkeys (6-7 years old, weighing 6-8 kg) were randomly divided into groups, with three animals for each group, and a series of test compounds were administered orally (p.o.) or intravenously (i.v.) according to the protocol in following Table 10.
The solution for gavage and intravenous administration was prepared with DMSO/HS15/PEG400/NaCl (5/3/40/52, […]). The administration time was recorded, and for each sample, approximately 0.20 mL of blood was collected by jugular vein blood collection or other appropriate methods at the pre-determined time points. The blood sample was anticoagulated with heparin sodium, and after collection, the blood was placed on ice. The sample was centrifuged to separate the plasma within 1 h (centrifugation conditions: 6800 g, 6 min, 2-8° C.). Plasma samples were stored in a −80° C. freezer before analysis. The grouping and blood collection time points are shown in Table 4, with 3 animals at each time point.

[4] = tested on: SARS-CoV-2 Omicron (B.1.1.529) BA.2; assay: Antiviral activity by plaque method in Vero E6-TMPRSS2 cells: SARS-CoV-2 Omicron BA.2; assay type: cell-based
in vivo [5] = settings: male, Sprague-Dawley, rat
in vivo [6] = assay type: in vivo, ICR mice; settings: for MRT inf: read-out: MRTINF—obs
human caspase 2 = human caspase 2 (Homo sapiens (Human), UniProt P42575); assay: Human protease biochemical activity assay: Caspase-2 inhibitor screening kit
Chain of human caspase 2 (P42575 170-325): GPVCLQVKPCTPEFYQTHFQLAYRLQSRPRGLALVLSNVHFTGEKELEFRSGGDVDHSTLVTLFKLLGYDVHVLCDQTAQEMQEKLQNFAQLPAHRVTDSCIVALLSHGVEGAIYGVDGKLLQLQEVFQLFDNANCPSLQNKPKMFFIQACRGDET
Chain of human caspase 2 (P42575 348-452): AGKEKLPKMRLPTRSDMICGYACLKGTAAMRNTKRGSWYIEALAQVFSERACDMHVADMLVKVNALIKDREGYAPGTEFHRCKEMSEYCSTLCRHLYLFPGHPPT
Protocol: as §1

[7] = Metabolic stability using human liver microsomes; assay type: in vitro ADME; settings: pH 7.4, NADPH, 37° C., read-out: Human liver microsomes T1/2
human cathepsin D = human cathepsin D (Homo sapiens (Human), UniProt P07339); assay: Human protease biochemical activity assay: Cathepsin D inhibitor screening kit
Chain of human cathepsin D (P07339 65-412): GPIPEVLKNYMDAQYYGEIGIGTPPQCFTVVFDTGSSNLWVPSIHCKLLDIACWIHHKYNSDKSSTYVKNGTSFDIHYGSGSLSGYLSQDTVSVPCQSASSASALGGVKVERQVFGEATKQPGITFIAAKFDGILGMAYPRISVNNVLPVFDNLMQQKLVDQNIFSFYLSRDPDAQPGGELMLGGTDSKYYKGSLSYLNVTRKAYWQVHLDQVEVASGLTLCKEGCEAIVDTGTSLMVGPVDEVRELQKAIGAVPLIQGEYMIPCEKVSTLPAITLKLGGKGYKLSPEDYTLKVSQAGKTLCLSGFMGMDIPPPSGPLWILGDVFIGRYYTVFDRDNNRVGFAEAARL
Protocol: as §1

human cathepsin K = human cathepsin K (Homo sapiens (Human), UniProt P43235); assay: Human protease biochemical activity assay: Cathepsin K inhibitor screening kit
Chain of human cathepsin K (P43235 115-329): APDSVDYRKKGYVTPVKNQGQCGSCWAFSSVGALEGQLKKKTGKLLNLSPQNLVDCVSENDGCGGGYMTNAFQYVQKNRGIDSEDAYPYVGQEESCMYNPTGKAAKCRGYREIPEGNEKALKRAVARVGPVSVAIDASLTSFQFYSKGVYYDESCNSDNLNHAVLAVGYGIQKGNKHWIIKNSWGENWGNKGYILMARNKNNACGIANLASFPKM
Protocol: as §1

[8] = tested on: SARS-CoV-2 Omicron (B.1.1.529) BA.5; assay: Antiviral activity by plaque method in Vero E6-TMPRSS2 cells: SARS-CoV-2 Omicron BA.5; assay type: cell-based
[9] = target: hERG potassium ion channels (Homo sapiens (Human), UniProt Q12809); assay: hERG potassium current, whole cell patch clamp in HEK-293-hERG cells; settings: 30 μM
Chain of hERG potassium ion channels (Q12809 whole entry, looked up): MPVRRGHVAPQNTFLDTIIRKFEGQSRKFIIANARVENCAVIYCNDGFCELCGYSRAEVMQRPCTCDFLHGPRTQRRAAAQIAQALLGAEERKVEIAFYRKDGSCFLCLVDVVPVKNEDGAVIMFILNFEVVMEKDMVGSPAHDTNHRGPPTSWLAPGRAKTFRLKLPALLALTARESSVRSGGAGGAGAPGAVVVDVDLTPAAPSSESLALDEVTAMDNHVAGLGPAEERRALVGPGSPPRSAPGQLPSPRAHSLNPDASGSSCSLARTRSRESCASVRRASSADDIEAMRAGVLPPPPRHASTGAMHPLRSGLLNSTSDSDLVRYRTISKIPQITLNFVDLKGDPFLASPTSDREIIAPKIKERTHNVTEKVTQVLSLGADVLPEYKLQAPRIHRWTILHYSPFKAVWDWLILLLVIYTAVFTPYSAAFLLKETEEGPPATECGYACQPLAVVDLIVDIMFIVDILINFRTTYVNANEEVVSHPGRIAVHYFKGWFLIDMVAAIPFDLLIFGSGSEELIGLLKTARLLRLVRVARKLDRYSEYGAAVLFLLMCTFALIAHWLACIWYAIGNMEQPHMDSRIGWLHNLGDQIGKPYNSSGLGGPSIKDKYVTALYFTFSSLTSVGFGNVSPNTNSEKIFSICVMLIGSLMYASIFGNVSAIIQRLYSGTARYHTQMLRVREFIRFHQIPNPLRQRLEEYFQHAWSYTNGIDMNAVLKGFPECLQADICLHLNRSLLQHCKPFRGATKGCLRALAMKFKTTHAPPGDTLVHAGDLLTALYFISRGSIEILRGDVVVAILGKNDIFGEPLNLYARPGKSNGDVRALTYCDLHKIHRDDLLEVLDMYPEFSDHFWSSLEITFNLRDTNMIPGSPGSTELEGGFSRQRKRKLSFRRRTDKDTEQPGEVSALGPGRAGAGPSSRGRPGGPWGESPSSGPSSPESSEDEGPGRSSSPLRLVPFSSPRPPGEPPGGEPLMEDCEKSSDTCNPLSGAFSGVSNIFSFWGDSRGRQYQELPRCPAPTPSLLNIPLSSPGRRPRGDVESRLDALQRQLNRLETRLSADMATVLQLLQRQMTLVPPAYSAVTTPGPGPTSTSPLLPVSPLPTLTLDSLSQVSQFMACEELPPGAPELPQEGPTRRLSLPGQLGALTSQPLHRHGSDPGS

SARS-CoV-1 = assay type: cell-based
[10] = Preliminary evaluation of in vivo safety (acute and general toxicity test); settings: p.o.; 1000 mg/kg single-dose; 800, 600, 400 mg/kg twice a day for 14 consecutive days
human cathepsin B = human cathepsin B (Homo sapiens (Human), UniProt P07858); assay: Human protease biochemical activity assay: Cathepsin B inhibitor screening kit
Protocol: as §1

[11] = male, cynomolgus monkey, in vivo, iv, cynomolgus monkeys, i.v. 1 mg/kg
[12] = male, dog, in vivo, po, beagle dogs, p.o. 10 mg/kg
[13] = male, mouse, in vivo, iv, ICR mice, i.v. 1 mg/kg

SMILES: COC[C@@H](NC(=O)C1CCCC(F)(F)C1)C(=O)N[C@H](Cc1ccccc1)C(=O)C(=O)NCc1nccs1 (stereo partly drawn) [Compound 398, N—((R)-1-(((R)-3,4-dioxo-1-phenyl-4-((thiazole-2-ylmethyl)amino)butan-2-yl)amino)-3-methoxy-1-oxopropan-2-yl)-3,3-difluorocyclohexane-1-formamide]
- IC50 (human thrombin): > 100 µM
- infectious viral load in the lungs by plaque assay (in words) [1]: effectively inhibited the production of infectious viral particles in the lungs
- inhibition of viral subgenome mRNA (sgRNA) in the lungs [1]: 337 times
- lung histopathology, H&E staining (in words) [1]: scattered inflammatory cell infiltration was occasionally observed
- reduction of sgRNA copies in the lungs [1]: 12 times
- reduction of sgRNA copy in the lungs compared with mice treated with Nirmatrelvir [1]: four times
- reduction of vRNA copies in the lungs [1]: 16 times
- reduction of vRNA copy in the lungs compared with mice treated with Nirmatrelvir [1]: four times
- reduction of viral genomic RNA (vRNA) in the lungs [1]: 179 times
- anti-viral activity, times higher than Nirmatrelvir (PF-07321332) (MERS-CoV): 1.79 times
- Vssobs (in vivo [2]; cynomolgus monkeys, i.v. 1 mg/kg): 2.0658 ± 0.37439 L/kg
- pharmacokinetic properties in cynomolgus monkeys (in words) (in vivo [2]; i.v. 1 mg/kg, p.o. 10 mg/kg): good pharmacokinetic properties
- Tmax (in vivo [2]; [11]): 4.8 min
- clearance (in vivo [2]; [11]): 2000 ± 257 mL/min/kg
- MRT inf (in vivo [2]; [11]): 54 ± 10.8 min
- MRT inf (in vivo [2]; male, cynomolgus monkey, in vivo, po, cynomolgus monkeys, p.o. 10 mg/kg): 283 ± 53.4 min
- Vssobs (in vivo [3]; beagle dogs, i.v. 1 mg/kg): 1.41964 ± 0.16026 L/kg
- pharmacokinetic properties in beagle dogs (in words) (in vivo [3]; i.v. 1 mg/kg, p.o. 10 mg/kg): good pharmacokinetic properties
- MRT inf (in vivo [3]; male, dog, in vivo, iv, beagle dogs, i.v. 1 mg/kg): 28.2 ± 3 min
- Tmax (in vivo [3]; [12]): 60 min
- MRT inf (in vivo [3]; [12]): 128 ± 10.8 min
- anti-viral activity, times higher than Nirmatrelvir (PF-07321332) [4]: 2.82 times
- MRT inf (in vivo [5]; iv, 1 mg/kg): 140 ± 13.2 min
- Tmax (in vivo [5]; iv, 1 mg/kg): 4.8 min
- MRT inf (in vivo [5]; po, 10 mg/kg): 396 ± 53.4 min
- Tmax (in vivo [5]; po, 10 mg/kg): 240 ± 120 min
- pharmacokinetic properties in mice (in words) (in vivo [6]; i.v. 1 mg/kg, p.o. 150 mg/kg): good pharmacokinetic properties
- Tmax (in vivo [6]; [13]): 4.8 min
- MRT inf (in vivo [6]; [13]): 10.2 ± 1.8 min
- MRT inf (in vivo [6]; male, mouse, in vivo, po, ICR mice, p.o. 150 mg/kg): 217 ± 70.8 min
- IC50 (human caspase 2): > 100 µM
- half-life at 1 µM [7]: 35.3 min
- IC50 (human cathepsin D): > 100 µM
- IC50 (human cathepsin K): > 100 µM
- anti-viral activity, times higher than Nirmatrelvir (PF-07321332) [8]: 4.00 times
- The average inhibition rate on hERG current [9]: 1.28%
- anti-viral activity, times higher than Nirmatrelvir (PF-07321332) (SARS-CoV-1): 17.14 times
- body weight and general condition during the administration period [10]: 1. During the administration period, no abnormal body
- IC50 (human cathepsin B): > 100 µM
